How the values were obtained:
Hepatitis C virus [1] = experiment: Antiviral activity against HCV genotype 1b infected in human HuH7 cells by luciferase reporter gene assay; format: functional, cell-based, Hepacivirus hominis; conditions: Huh-7
Hepatitis C virus [2] = experiment: Antiviral activity against HCV genotype 1a infected in human HuH7 cells by luciferase reporter gene assay; format: functional, cell-based, Hepacivirus hominis; conditions: subtype 1a, Huh-7
[3] = Plasma concentration in Sprague-Dawley rat at 5 mg/kg, po measured 4 hrs post dose; format: ADME, organism-based; set-up: dose 5 mg/kg, route oral
Hepatitis C virus [4] = experiment: Antiviral activity against HCV genotype 3a infected in human HuH7 cells by luciferase reporter gene assay; format: functional, cell-based, Hepacivirus hominis; conditions: Huh-7
[5] = Volume of distribution at steady state in Sprague-Dawley rat at 1 mg/kg, iv; format: ADME, organism-based; set-up: dose 1 mg/kg, route intravenous; conditions: in vivo, read-out: Vdss
[6] = Cmax in Sprague-Dawley rat at 5 mg/kg, po; format: ADME, organism-based; set-up: dose 5 mg/kg, route oral; conditions: in vivo
Rattus norvegicus [7] = experiment: (§1) AUC(last) in Sprague-Dawley rat at 1 mg/kg, iv; format: ADME, organism-based, Plasma; set-up: time 0 - last, dose 1 mg/kg, route intravenous; conditions: in vivo
[8] = Drug level in Sprague-Dawley rat liver at 5 mg/kg, po measured 4 hrs post dose; format: ADME, organism-based; set-up: dose 5 mg/kg, route oral; conditions: read-out: Drug uptake
[9] = Half life in Sprague-Dawley rat at 1 mg/kg, iv; format: ADME, organism-based; set-up: dose 1 mg/kg, route intravenous; conditions: in vivo
Rattus norvegicus [10] = experiment: (§2) Clearance in Sprague-Dawley rat at 1 mg/kg, iv; format: ADME, organism-based; set-up: dose 1 mg/kg, route intravenous; conditions: in vivo
[11] = Oral bioavailability in Sprague-Dawley rat at 5 mg/kg; format: ADME, organism-based; conditions: in vivo
[12] = AUC(last) in Sprague-Dawley rat at 5 mg/kg, po; format: ADME, organism-based; set-up: dose 5 mg/kg, route oral, time 0 - last; conditions: plasma
[13] = Tmax in Sprague-Dawley rat at 5 mg/kg, po; format: ADME, organism-based; set-up: dose 5 mg/kg, route oral; conditions: in vivo
[14] = as §1; format: ADME, organism-based, Plasma; set-up: time 0 - last, dose 1 mg/kg, route intravenous; conditions: Sprague-Dawley, plasma
[15] = as §2; format: ADME, organism-based; set-up: dose 1 mg/kg, route intravenous; conditions: Sprague-Dawley, in vivo
Hepatitis C virus [16] = experiment: Antiviral activity against HCV genotype 4a infected in human HuH7 cells by luciferase reporter gene assay; format: functional, cell-based, Hepacivirus hominis; conditions: Huh-7
Hepatitis C virus [17] = experiment: Antiviral activity against HCV genotype 5a infected in human HuH7 cells by luciferase reporter gene assay; format: functional, cell-based, Hepacivirus hominis; conditions: Huh-7
Hepatitis C virus [18] = experiment: Antiviral activity against HCV genotype 6a infected in human HuH7 cells by luciferase reporter gene assay; format: functional, cell-based, Hepacivirus hominis; conditions: Huh-7

EC50 (Hepatitis C virus [1]) [nM]	EC50 (Hepatitis C virus [2]) [nM]	Compound	other results
0.02	0.065	COC(=O)N[C@H](C(=O)N1CCC[C@H]1c1ncc(-c2ccc3c(c2)Oc2ccc(-c4cnc([C@@H]5CCCN5C(=O)[C@@H](NC(=O)OC)C(C)C)[nH]4)cc2C32CC2)[nH]1)C(C)C	–
> 3.7	> 100	COC(=O)N[C@H](C(=O)N1CCC[C@H]1c1ncc(-c2ccc3c(c2)Cc2cc(-c4cnc([C@@H]5CCCN5C(=O)[C@@H](NC(=O)OC)C(C)C)[nH]4)ccc2O3)[nH]1)C(C)C	–
0.18	16.5	COC(=O)N[C@H](C(=O)N1CCC[C@H]1c1ncc(-c2ccc3c(c2)[nH]c2cc(-c4cnc([C@@H]5CCCN5C(=O)[C@@H](NC(=O)OC)C(C)C)[nH]4)ccc23)[nH]1)C(C)C	–
0.055	7.4	COC(=O)N[C@H](C(=O)N1CCC[C@H]1c1ncc(-c2ccc3c(c2)CCc2ccc(-c4cnc([C@@H]5CCCN5C(=O)[C@@H](NC(=O)OC)C(C)C)[nH]4)cc2O3)[nH]1)C(C)C	–
0.055	3.4	COC(=O)N[C@H](C(=O)N1CCC[C@H]1c1ncc(-c2ccc3oc4cc(-c5cnc([C@@H]6CCCN6C(=O)[C@@H](NC(=O)OC)C(C)C)[nH]5)c(C)cc4c(=O)c3c2)[nH]1)C(C)C	–
0.037	0.088	COC(=O)N[C@H](C(=O)N1CCC[C@H]1c1ncc(-c2ccc3nc4cc(-c5cnc([C@@H]6CCCN6C(=O)[C@@H](NC(=O)OC)C(C)C)[nH]5)ccc4nc3c2)[nH]1)C(C)C	–
0.028	0.173	COC(=O)N[C@H](C(=O)N1CCC[C@H]1c1ncc(-c2ccc3c(=O)c4cc(-c5cnc([C@@H]6CCCN6C(=O)[C@@H](NC(=O)OC)C(C)C)[nH]5)ccc4oc3c2)[nH]1)C(C)C	concentration at 4 h [3]: 14 ng/mL; EC50 (Hepatitis C virus [4]): 1.4 nM; Vd [5]: 3.57 L/kg; Cmax [6]: 96.5 ng/mL; AUClast (Rattus norvegicus [7]): 626 ng·h/mL; concentration at 4 h [8]: 25 ng/mL; half-life [9]: 0.92 h; CL (Rattus norvegicus [10]): 55 mL/min/kg; bioavailability [11]: 6.7%; AUC(0-t) [12]: 197 ng·h/mL; Tmax [13]: 0.5 h
0.55	3	COC(=O)N[C@H](C(=O)N1CCC[C@H]1c1ncc(-c2ccc3c(c2)-c2ccc(-c4cnc([C@@H]5CCCN5C(=O)[C@@H](NC(=O)OC)C(C)C)[nH]4)cc2-3)[nH]1)C(C)C	–
0.028	11.1	COC(=O)N[C@H](C(=O)N1CCC[C@H]1c1ncc(-c2ccc3c(c2)c(=O)c2ccc(-c4cnc([C@@H]5CCCN5C(=O)[C@@H](NC(=O)OC)C(C)C)[nH]4)cc2n3C)[nH]1)C(C)C	–
0.13	2	COC(=O)N[C@H](C(=O)N1CCC[C@H]1c1ncc(-c2ccc3c(c2)S(=O)(=O)c2cc(-c4cnc([C@@H]5CCCN5C(=O)[C@@H](NC(=O)OC)C(C)C)[nH]4)ccc2-3)[nH]1)C(C)C	–
0.042	0.25	COC(=O)N[C@H](C(=O)N1CCC[C@H]1c1ncc(-c2ccc3c(c2)Cc2cc(-c4cnc([C@@H]5CCCN5C(=O)[C@@H](NC(=O)OC)C(C)C)[nH]4)ccc2-3)[nH]1)C(C)C	EC50 (Hepatitis C virus [4]): 3.8 nM
0.033	1.8	COC(=O)N[C@H](C(=O)N1CCC[C@H]1c1ncc(-c2ccc3c(c2)oc2ccc(-c4cnc([C@@H]5CCCN5C(=O)[C@@H](NC(=O)OC)C(C)C)[nH]4)cc23)[nH]1)C(C)C	–
0.037	1.14	COC(=O)N[C@H](C(=O)N1CCC[C@H]1c1ncc(-c2ccc3c(c2)C(C)(C)c2cc(-c4cnc([C@@H]5CCCN5C(=O)[C@@H](NC(=O)OC)C(C)C)[nH]4)ccc2-3)[nH]1)C(C)C	–
> 3.7	> 100	COC(=O)N[C@H](C(=O)N1CCC[C@H]1c1ncc(-c2ccc3c(c2)Oc2ccc(-c4cnc([C@@H]5CCCN5C(=O)[C@@H](NC(=O)OC)C(C)C)[nH]4)cc2C(=O)N3)[nH]1)C(C)C	–
0.17	7.7	COC(=O)N[C@H](C(=O)N1CCC[C@H]1c1ncc(-c2ccc3c4ccc(-c5cnc([C@@H]6CCCN6C(=O)[C@@H](NC(=O)OC)C(C)C)[nH]5)cc4n(C)c3c2)[nH]1)C(C)C	–
0.17	9	COC(=O)N[C@H](C(=O)N1CCC[C@H]1c1ncc(-c2ccc3oc4ccc(-c5cnc([C@@H]6CCCN6C(=O)[C@@H](NC(=O)OC)C(C)C)[nH]5)cc4c3c2)[nH]1)C(C)C	–
0.013	0.098	COC(=O)N[C@H](C(=O)N1CCC[C@H]1c1ncc(-c2ccc3c(c2)Cc2ccc(-c4cnc([C@@H]5CCCN5C(=O)[C@@H](NC(=O)OC)C(C)C)[nH]4)cc2O3)[nH]1)C(C)C	concentration at 4 h [3]: 371 ng/mL; Vd [5]: 1.32 L/kg; Cmax [6]: 380 ng/mL; AUC(0-t) [14]: 1060 ng·h/mL; concentration at 4 h [8]: 462 ng/mL; half-life [9]: 1.33 h; clearance [15]: 15.8 mL/min/kg; bioavailability [11]: 41.1%; AUC(0-t) [12]: 2090 ng·h/mL; Tmax [13]: 3.33 h
0.045	0.45	COC(=O)N[C@H](C(=O)N1CCC[C@H]1c1ncc(-c2ccc3c(c2)C(=O)c2cc(-c4cnc([C@@H]5CCCN5C(=O)[C@@H](NC(=O)OC)C(C)C)[nH]4)ccc2-3)[nH]1)C(C)C	–
0.029	2.5	COC(=O)N[C@H](C(=O)N1CCC[C@H]1c1ncc(-c2ccc3oc4cc(-c5cnc([C@@H]6CCCN6C(=O)[C@@H](NC(=O)OC)C(C)C)[nH]5)c(Cl)cc4c(=O)c3c2)[nH]1)C(C)C	–
0.073	0.14	COC(=O)N[C@H](C(=O)N1CCC[C@H]1c1ncc(-c2ccc(-c3ccc(-c4cnc([C@@H]5CCCN5C(=O)[C@@H](NC(=O)OC)C(C)C)[nH]4)cc3)cc2)[nH]1)C(C)C [DACLATASVIR]	EC50 (Hepatitis C virus [16]): 0.041 nM; EC50 (Hepatitis C virus [4]): 0.67 nM; EC50 (Hepatitis C virus [17]): 0.051 nM; EC50 (Hepatitis C virus [18]): 0.45 nM
0.069	4.8	COC(=O)N[C@H](C(=O)N1CCC[C@H]1c1ncc(-c2ccc3c(c2)CCc2cc(-c4cnc([C@@H]5CCCN5C(=O)[C@@H](NC(=O)OC)C(C)C)[nH]4)ccc2O3)[nH]1)C(C)C	–
0.03	0.6	COC(=O)N[C@H](C(=O)N1CCC[C@H]1c1ncc(-c2ccc3oc4cc(-c5cnc([C@@H]6CCCN6C(=O)[C@@H](NC(=O)OC)C(C)C)[nH]5)c(F)cc4c(=O)c3c2)[nH]1)C(C)C	–
0.041	0.4	COC(=O)N[C@H](C(=O)N1CCC[C@H]1c1ncc(-c2ccc3c(c2)oc2cc(-c4cnc([C@@H]5CCCN5C(=O)[C@@H](NC(=O)OC)C(C)C)[nH]4)ccc23)[nH]1)C(C)C	EC50 (Hepatitis C virus [4]): 1.3 nM

Compound	EC50 (Hepatitis C virus [1]) [nM]	EC50 (Hepatitis C virus [2]) [nM]	other results
COC(=O)N[C@H](C(=O)N1CCC[C@H]1c1ncc(-c2ccc3c(c2)Oc2ccc(-c4cnc([C@@H]5CCCN5C(=O)[C@@H](NC(=O)OC)C(C)C)[nH]4)cc2O3)[nH]1)C(C)C	0.023	0.044	concentration at 4 h [3]: 199 ng/mL; EC50 (Hepatitis C virus [4]): 0.06 nM; Vd [5]: 1.18 L/kg; Cmax [6]: 339 ng/mL; AUC(0-t) [14]: 2570 ng·h/mL; concentration at 4 h [8]: 973 ng/mL; half-life [9]: 2.53 h; clearance [15]: 11.2 mL/min/kg; bioavailability [11]: 20.1%; AUC(0-t) [12]: 1470 ng·h/mL; Tmax [13]: 1.33 h
